pIC50: −log10 of the molar value.
What follows are molecules tested against T1, PDE10 (UniProt Q8CA95) (assay: PDE10 enzyme inhibition, IMAP TR-FRET assay (Example A: MPDE10A7 Enzyme Activity and Inhibition)). Conditions: Table 1A, Examples 11-56; read-out: PDE10 IC50.
T1 sequence (Q8CA95 1-790): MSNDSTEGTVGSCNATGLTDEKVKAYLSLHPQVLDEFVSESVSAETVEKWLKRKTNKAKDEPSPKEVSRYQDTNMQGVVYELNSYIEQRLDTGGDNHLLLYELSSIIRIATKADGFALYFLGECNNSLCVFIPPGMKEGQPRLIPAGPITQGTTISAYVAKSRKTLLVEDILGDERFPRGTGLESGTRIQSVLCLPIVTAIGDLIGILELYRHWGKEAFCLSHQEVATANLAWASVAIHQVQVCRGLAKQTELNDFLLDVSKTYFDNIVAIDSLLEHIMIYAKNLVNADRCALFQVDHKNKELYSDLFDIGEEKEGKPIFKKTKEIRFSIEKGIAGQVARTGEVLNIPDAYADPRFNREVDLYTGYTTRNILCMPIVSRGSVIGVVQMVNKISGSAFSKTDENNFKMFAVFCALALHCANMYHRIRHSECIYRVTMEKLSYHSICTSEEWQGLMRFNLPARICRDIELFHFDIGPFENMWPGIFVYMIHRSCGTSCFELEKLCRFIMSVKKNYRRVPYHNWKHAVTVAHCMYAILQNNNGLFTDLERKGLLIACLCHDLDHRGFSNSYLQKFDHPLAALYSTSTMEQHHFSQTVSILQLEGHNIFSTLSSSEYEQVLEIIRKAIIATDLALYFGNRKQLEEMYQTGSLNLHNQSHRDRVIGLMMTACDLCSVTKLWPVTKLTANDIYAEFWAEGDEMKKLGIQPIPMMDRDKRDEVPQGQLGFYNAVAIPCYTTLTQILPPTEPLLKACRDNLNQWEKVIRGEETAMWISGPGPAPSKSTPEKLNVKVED
Format: biochemical
Method: MPDE10A7 Enzyme Activity and Inhibition Enzyme Activity. An IMAP TR-FRET assay was used to analyze the enzyme activity (Molecular Devices Corp., Sunnyvale Calif.). 5 μL of serial diluted PDE10A (BPS Bioscience, San Diego, Calif.) or tissue homogenate was incubated with equal volumes of diluted fluorescein labeled cAMP or cGMP for 60 min in 384-well polystyrene assay plates (Corning, Corning, N.Y.) at room temperature. After incubation, the reaction was stopped by adding 60 μL of diluted binding reagents and was incubated for 3 hours to overnight at room temperature. The plates were read on an Envision (Perkin Elmer, Waltham, Mass.) for time resolved fluorescence resonance energy transfer. The data were analyzed with GraphPad Prism (La Jolla, Calif.). Enzyme Inhibition. To check the inhibition profile, 5 μL of serial diluted compounds were incubated with 5 μL of diluted PDE10 enzyme (BPS Bioscience, San Diego, Calif.) or tissue homogenate in a 384-well polystyrene assay plate (Corning, Corning, N.Y.) for 30 min at room temperature. After incubation, 10 μL of diluted fluorescein labeled cAMP or cGMP substrate were added and incubated for 60 min at room temperature. The reaction was stopped by adding 60 μL of diluted binding reagents and plates were read on an Envision (Perkin Elmer, Waltham, Mass.) for time resolved fluorescence resonance energy transfer. The data were analyzed with GraphPad Prism (La Jolla, Calif.).
A pIC50 of 6.51 was found for `N#Cc1ccc2[nH]c(C3CCN(c4ncccc4Cl)C3)nc2c1` (stereo not drawn) [Example 11, 2-[1-(3-chloro-pyridin-2-yl)-pyrrolidin-3-yl]-1H-benzoimidazole-5-carbonitrile] in this work. A pIC50 of 6.27 was found for `N#Cc1ccc2[nH]c(C3CCN(c4nccnc4N4CCOCC4)C3)nc2c1` (stereo not drawn) [Example 12, 2-[1-(3-Morpholin-4-yl-pyrazin-2-yl)-pyrrolidin-3-yl]-1H-benzoimidazole-5-carbonitrile] in this work. A pIC50 of 6.56 was found for `c1ccc(-c2nccnc2N2CCC(c3nc4cc(C5CC5)ccc4[nH]3)CC2)cc1` [Example 13, 5-Cyclopropyl-2-[1-(3-phenyl-pyrazin-2-yl)-piperidin-4-yl]-1H-benzoimidazole] in this work. A pIC50 of 6.79 was found for `N#Cc1ccc2[nH]c(C3CN(c4nccnc4-c4ccccc4)C3)nc2c1` [Example 14, 2-[1-(3-phenyl-pyrazin-2-yl)-azetidin-3-yl]-1H-benzoimidazole-5-carbonitrile] in this work. A pIC50 of 6.34 was found for `N#Cc1ccc2[nH]c(C3CCN(c4nccnc4-c4ccccc4)C3)nc2c1` (stereo not drawn) [Example 15, 2-[1-(3-phenyl-pyrazin-2-yl)-pyrrolidin-3-yl]-1H-benzoimidazole-5-carbonitrile] in this work. A pIC50 of 5.93 was found for `O=C(c1cccnc1N1CC(c2nc3cc(Cl)ccc3[nH]2)C1)N1CCC1` [Example 16, Azetidin-1-yl-{2-[3-(5-chloro-1H-benzoimidazol-2-yl)-azetidin-1-yl]-pyridin-3-yl}-methanone] in this work. A pIC50 of 4.48 was found for `O=C(c1cccnc1N1CC(c2nc3cc(Cl)ccc3[nH]2)C1)N1CCOCC1` [Example 17, {2-[3-(5-chloro-1H-benzoimidazol-2-yl)-azetidin-1-yl]-pyridin-3-yl}-morpholin-4-yl-methanone] in this work. A pIC50 of 5.58 was found for `O=C(Nc1ccccc1)c1cccnc1N1CC(c2nc3cc(Cl)ccc3[nH]2)C1` [Example 18, 2-[3-(5-chloro-1H-benzoimidazol-2-yl)-azetidin-1-yl]-N-phenyl-nicotinamide] in this work. A pIC50 of 5.33 was found for `O=C(NCc1ccccc1)c1cccnc1N1CC(c2nc3cc(Cl)ccc3[nH]2)C1` [Example 19, N-Benzyl-2-[3-(5-chloro-1H-benzoimidazol-2-yl)-azetidin-1-yl]-nicotinamide] in this work. A pIC50 of 5.78 was found for `O=C(NCCc1ccccc1)c1cccnc1N1CC(c2nc3cc(Cl)ccc3[nH]2)C1` [Example 20, 2-[3-(5-chloro-1H-benzoimidazol-2-yl)-azetidin-1-yl]-N-phenethyl-nicotinamide] in this work. A pIC50 of 5.32 was found for `CC(C)NC(=O)c1cccnc1N1CC(c2nc3cc(Cl)ccc3[nH]2)C1` [Example 21, 2-[3-(5-chloro-1H-benzoimidazol-2-yl)-azetidin-1-yl]-N-isopropyl-nicotinamide] in this work. A pIC50 of 5.65 was found for `CC(C)CNC(=O)c1cccnc1N1CC(c2nc3cc(Cl)ccc3[nH]2)C1` [Example 22, 2-[3-(5-chloro-1H-benzoimidazol-2-yl)-azetidin-1-yl]-N-isobutyl-nicotinamide] in this work. A pIC50 of 4.42 was found for `O=C(NCC1CCOCC1)c1cccnc1N1CC(c2nc3cc(Cl)ccc3[nH]2)C1` [Example 23, 2-[3-(5-chloro-1H-benzoimidazol-2-yl)-azetidin-1-yl]-N-(tetrahydro-pyran-4-ylmethyl)-nicotinamide] in this work. A pIC50 of 7.09 was found for `Cc1ccccc1-c1nccnc1N1CC(c2nc3cc(Cl)ccc3[nH]2)C1` [Example 24, 5-chloro-2-[1-(3-o-tolyl-pyrazin-2-yl)-azetidin-3-yl]-1H-benzoimidazole] in this work. A pIC50 of 7.82 was found for `Cc1cccc(-c2nccnc2N2CC(c3nc4cc(Cl)ccc4[nH]3)C2)c1` [Example 25, 5-chloro-2-[1-(3-m-tolyl-pyrazin-2-yl)-azetidin-3-yl]-1H-benzoimidazole] in this work. A pIC50 of 6.87 was found for `Cc1ccc(-c2nccnc2N2CC(c3nc4cc(Cl)ccc4[nH]3)C2)cc1` [Example 26, 5-chloro-2-[1-(3-p-tolyl-pyrazin-2-yl)-azetidin-3-yl]-1H-benzoimidazole] in this work. A pIC50 of 5.36 was found for `COc1ccccc1-c1nccnc1N1CC(c2nc3cc(Cl)ccc3[nH]2)C1` [Example 27, 5-chloro-2-{1-[3-(2-methoxy-phenyl)-pyrazin-2-yl]-azetidin-3-yl}-1H-benzoimidazole] in this work. A pIC50 of 7.59 was found for `COc1cccc(-c2nccnc2N2CC(c3nc4cc(Cl)ccc4[nH]3)C2)c1` [Example 28, 5-chloro-2-{1-[3-(3-methoxy-phenyl)-pyrazin-2-yl]-azetidin-3-yl}-1H-benzoimidazole] in this work. A pIC50 of 6.96 was found for `COc1ccc(-c2nccnc2N2CC(c3nc4cc(Cl)ccc4[nH]3)C2)cc1` [Example 29, 5-chloro-2-{1-[3-(4-methoxy-phenyl)-pyrazin-2-yl]-azetidin-3-yl}-1H-benzoimidazole] in this work.

Same assay, conditions: read-out: IC50
A pIC50 of 6.57 was found for `N#Cc1ccc2[nH]c(C3CCN(c4nccnc4-c4ccccc4)CC3)nc2c1` [Example 1A, 2-[1-(3-PHENYL-PYRAZIN-2-YL)-PIPERIDIN-4-YL]-1H-BENZOIMIDAZOLE-5-CARBONITRILE] in this work. A pIC50 of 5.70 was found for `N#Cc1ccc2[nH]c(C3CCN(c4nccnc4N4CCOCC4)CC3)nc2c1` [Example 1B, 2-[1-(3-MORPHOLIN-4-YL-PYRAZIN-2-YL)-PIPERIDIN-4-YL]-1H-BENZOIMIDAZOLE-5-CARBONITRILE] in this work. A pIC50 of 6.62 was found for `Cc1ccc2[nH]c(C3CN(c4nccnc4OC4CCOCC4)C3)nc2c1` [Example 1C, 5-METHYL-2-(1-(3-(TETRAHYDRO-2H-PYRAN-4-YLOXY)PYRAZIN-2-YL)AZETIDIN-3-YL)-1H-BENZO[D]IMIDAZOLE] in this work. A pIC50 of 6.19 was found for `Clc1ccc2[nH]c(C3CN(c4ccnc(N5CCOCC5)n4)C3)nc2c1` [Example 1D, 4-(4-(3-(5-CHLORO-1H-BENZO[D]IMIDAZOL-2-YL)AZETIDIN-1-YL)PYRIMIDIN-2-YL)MORPHOLINE] in this work. A pIC50 of 6.68 was found for `Cc1ccc2[nH]c(C3CN(c4c(Cl)cncc4Cl)C3)nc2c1` [Example 2A, 2-[1-(3,5-DICHLORO-PYRIDIN-4-YL)-AZETIDIN-3-YL]-5-METHYL-1H-BENZOIMIDAZOLE] in this work. A pIC50 of 7.66 was found for `Cc1ccc2[nH]c(C3CN(c4c(Cl)cncc4-c4ccccc4)C3)nc2c1` [Example 2B, 2-[1-(3-CHLORO-5-PHENYL-PYRIDIN-4-YL)-AZETIDIN-3-YL]-5-METHYL-1H-BENZOIMIDAZOLE] in this work. A pIC50 of 6.26 was found for `O=C(c1cccnc1N1CC(c2nc3cc(Cl)ccc3[nH]2)C1)N1CC(O)C1` [Example 3, {2-[3-(5-CHLORO-1H-BENZOIMIDAZOL-2-YL)-AZETIDIN-1-YL]-PYRIDIN-3-YL}-(3-HYDROXY-AZETIDIN-1-YL)-METHANONE] in this work. A pIC50 of 5.41 was found for `CNC(=O)c1nccnc1N1CC(c2nc3cc(Cl)ccc3[nH]2)C1` [Example 4, 3-[3-(5-CHLORO-1H-BENZOIMIDAZOL-2-YL)-AZETIDIN-1-YL]-PYRAZINE-2-CARBOXYLIC ACID METHYLAMIDE] in this work. A pIC50 of 5.96 was found for `Clc1ccc2[nH]c(C3CN(c4cc(OC5CCOCC5)ccn4)C3)nc2c1` [Example 5, 5-CHLORO-2-(1-(4-(TETRAHYDRO-2H-PYRAN-4-YLOXY)PYRIDIN-2-YL)AZETIDIN-3-YL)-1H-BENZO[D]IMIDAZOLE] in this work. A pIC50 of 5.89 was found for `Clc1ccc2[nH]c(C3CN(c4cc(C5CCOCC5)ncn4)C3)nc2c1` [Example 6, 5-CHLORO-2-(1-(6-(TETRAHYDRO-2H-PYRAN-4-YL)PYRIMIDIN-4-YL)AZETIDIN-3-YL)-1H-BENZO[D]IMIDAZOLE] in this work. A pIC50 of 6.81 was found for `Clc1ccc2[nH]c(C3CN(c4nc(N5CCOCC5)ncc4Cl)C3)nc2c1` [Example 7, 4-(5-CHLORO-4-(3-(5-CHLORO-1H-BENZO[D]IMIDAZOL-2-YL)AZETIDIN-1-YL)PYRIMIDIN-2-YL)MORPHOLINE] in this work. A pIC50 of 5.94 was found for `Clc1ccc2[nH]c(C3CN(c4nccnc4C4CCOCC4)C3)nc2c1` [Example 8, 5-CHLORO-2-(1-(3-(TETRAHYDRO-2H-PYRAN-4-YL)PYRAZIN-2-YL)AZETIDIN-3-YL)-1H-BENZO[D]IMIDAZOLE] in this work. A pIC50 of 5.93 was found for `Clc1ccc2[nH]c(C3CN(c4cc(C5CCOCC5)ccn4)C3)nc2c1` [Example 9, 5-CHLORO-2-(1-(4-(TETRAHYDRO-2H-PYRAN-4-YL)PYRIDIN-2-YL)AZETIDIN-3-YL)-1H-BENZO[D]IMIDAZOLE] in this work. A pIC50 of 6.05 was found for `Clc1ccc2[nH]c(C3CN(c4nccnc4OC4CCOCC4)C3)nc2c1` [Example 10, 5-CHLORO-2-(1-(3-(TETRAHYDRO-2H-PYRAN-4-YLOXY)PYRAZIN-2-YL)AZETIDIN-3-YL)-1H-BENZO[D]IMIDAZOLE] in this work.

— patent US8946230B2, “Aryl- and heteroaryl- nitrogen-heterocyclic compounds as PDE10 inhibitors” (Amgen Inc., priority 2010, dated 2015)
